Reference: ChEMBL document CHEMBL1126850, “Examination of the D2/5-HT2 affinity ratios of resolved 5,6,7,8,9,10-hexahydro-7,10-iminocyclohept[b]indoles: an enantioselective approach toward the design of potential atypical antipsychotics” (J Med Chem, 1993)

biological target: Serotonin 2 (5-HT2) receptor (Rattus norvegicus, UniProt P30994+P08909+P14842); assay: In vitro binding affinity towards 5-hydroxytryptamine 2 receptor in rat striatal membranes by [3H]ketanserin displacement.; type: cell membranes, Striatum, Membrane

SMILES | Ki [nM]
O=C(CCCN1C2CCC1c1c([nH]c3ccc(F)cc13)C2)c1ccc(F)cc1 (racemic) | 1.96
O=C(CCCCN1C2CCC1c1c([nH]c3ccc(F)cc13)C2)c1ccc(F)cc1 (racemic) | 2.98
O=C(CCCCN1C2CCC1c1c([nH]c3ccc(F)cc13)C2)c1ccc(F)cc1 (mixture of isomers) | 109
O=C(CCCCN1C2CCC1c1c([nH]c3ccc(F)cc13)C2)c1ccc(F)cc1 (stereo in doubt; (S,R)-9) | 1.87
O=C(CCCN1C2CCC1c1c([nH]c3ccc(F)cc13)C2)c1ccc(F)cc1 (stereo in doubt; (S,R) 8) | 0.8
O=C(CCCN1C2CCC1c1c([nH]c3ccc(F)cc13)C2)c1ccc(F)cc1 (mixture of isomers) | 2.56
